From patent publication US20240100062A1, “Methods of Treatment With an Iboga Alkaloid” (priority 2022, published 2024)
Values joined by “and” are separate entries in the source; they are usually repeats but may differ in a detail not shown here. Equal values may be shown once.

How the values were obtained:
[1] = system: special operations veterans; set-up: species or system human; conditions: in vivo
[2] = system: special operations veterans; assay: Brief Visuospatial Memory Test-Revised (BVMT-R), Example 1 study; format: in vivo, human
[3] = system: special operations veterans; assay: Delis-Kaplan Executive Function System (D-KEFS), Example 1 study; format: in vivo, human
[4] = system: special operations veterans; assay: CAPS-5 clinician-administered PTSD scale, Example 1 study; format: in vivo, human; conditions: for CAPS-5 score, mean: p(FDR) <0.001
Method: (§1) With subjects in the fasting state, an intravenous infusion of 1 gram of magnesium sulfate was administered 1-2 hours prior to treatment. […] Medical staff (MD, RN, or EMT) were onsite at a ratio of at least 1 staff per 2 patients throughout treatment for monitoring and management, but no specific coaching or psychological support was provided during treatment.
(§2) Post treatment, each subject was assessed four days after treatment, one month after treatment, and, if willing, one year after treatment. The post-treatment assessments conducted at four days and at one month after treatment included neuropsychological testing, measures of PTSD, depression, anxiety, mystical experiences, functional imaging and EEG. Post-treatment assessments conducted at one year after treatment included PTSD, depression, and anxiety measures.
(§3) Clinician administered scales included CAPS-5 (Clinician-administered PTSD Scale for DSM-5), which is a gold standard assessment of PTSD symptom severity; MADRS (Montgomery-Asberg Depression Rating Scale), a measure for depressive symptom severity; and Hamilton-Anxiety Rating Scale (HAM-A) (Shear, M. K. et al., Depress. Anxiety 13, 166-178 (2001)) a measure for anxiety symptom severity; SCID-5 (Structured Clinical Interview for DSM-5) Overview for a historical and environmental context of symptom presentation; MINI DSM-5 (Mini International Neuropsychiatric Interview from DSM-5) for a structured psychodiagnostics assessment; BAT-L (Boston Assessment of TBI—Lifetime) for a lifetime history of TBI and blast exposure; and Ohio State University TBI Identification Method (Short Form) for a lifetime history of TBI. MADRS testing provides an indication of depressive symptoms, CAPS-5 provides an indication of PTSD and SIGH-A provides an indication of anxiety. Collectively these overlap to provide indication of mood, concentration, sleep and tension.
For the CAPS-5, the test version with a […] structured interview of PTSD symptoms over the past week was used, using a 0 (“Absent”) to 4 (“Extreme/Incapacitating”) scale, with possible total scores ranging from 0 to 80. The score range 23 to 34 is considered moderate PTSD while a higher score represents severe PTSD (Weathers, F. W. et al., Psychol. Assess. 30, 383-395 (2018)).

[5] = system: special operations veterans; assay: Hamilton Anxiety Rating Scale (HAM-A), Example 1 study; format: in vivo, human; conditions: for HAM-A score, mean: p(FDR) <0.001
Method: as §1, §2, §3
To assess anxiety symptoms, the Hamilton Anxiety Rating Scale was used. This scale includes 14-items assessing both psychic and physical symptoms of anxiety. Items are rated on a scale from 0 (no symptoms) to 4 (severe symptoms). Total score ranges were: no or minimal anxiety (≤7), mild (8-14), moderate (15-23), and severe anxiety symptoms (≥24) (Matza et al., Int. J Methods Psychiatr. Res. 19, 223-232 (2010)).

[6] = system: special operations veterans; assay: Lag projection analysis of BOLD fMRI; format: in vivo, human; conditions: baseline vs about four days post treatment; left orbitofrontal gyrus (lateral and anterior) and inferior frontal gyrus (orbital and triangular); fwec p<0.001
Method: fMRI data was also analyzed to inspect activity patterns as a function of time. A lag projection analysis measures temporal dynamics of blood oxygen level-dependent (BOLD) fMRI (Mitra et al., PNAS, E2235-E2244, 2015). Directed flow transfer of information is analyzed by comparing lag-correlation shift between voxel pairs. The average lag structure of a voxel indicates relative earliness or lateness in the brain, as a measure of whether the region is a source or sink of information. A paired T-test of fMRI images at baseline and about four days post treatment was done. […] These regions are involved in language formation, response inhibition and regulating goal-directed behavior. Slowing may reflect sustained processing and influence over the brain across long time scales.

[7] = system: cortical neuron; conditions: in vitro; cited from earlier work
[8] = system: humans; conditions: in vivo; cited from earlier work

SMILES: CCC1CC2CC3c4[nH]c5ccc(OC)cc5c4CCN(C2)C13 (stereo not shown) [ibogaine, Ibogaine]
- Detection (CPT-3 Detection), D [1]: 0.86
- Reaction Time (CPT-3 Reaction Time), D [1]: 0.52 and 0.29
- Reaction Time (CPT-3 Reaction Time), mean ± SD [1]: 44.1 ± 6.8 T score and 46.4 ± 8.1 T score
- Slowing of reaction time, D [1]: 0.29-0.52
- Sustained Attention (CPT-3 Hit Reaction Time Block Change), mean ± SD [1]: 50.8 ± 7.9 T score and 51.2 ± 7.7 T score
- Visuospatial Memory (BVMT-R), D ([2]; baseline vs 1-month post): 0.32
- Visuospatial Memory (BVMT-R), D ([2]; baseline vs 1-wk post): 0.50
- Visual memory improvement ([2]; both timepoints): significant improvement in visual memory at both timepoints
- Phonemic Fluency (D-KEFS Verbal Fluency), mean ± SD ([3]; 1-mo. post, baseline 57.0 ± 11.7, p(FDR) <0.001): 64.0 ± 10.1 T score
- Cognitive Flexibility Composite, D ([3]; baseline vs 1-month post): 0.74
- Cognitive Inhibition (D-KEFS Color/Word Interference, Condition 3), D ([3]; baseline vs 1-month post): 0.62
- Phonemic Fluency (D-KEFS Verbal Fluency), D ([3]; baseline vs 1-month post): 1.11
- Problem Solving (D-KEFS TT, Total Achievement Score), D ([3]; baseline vs 1-month post): 0.44
- Semantic Fluency (D-KEFS Verbal Fluency), D ([3]; baseline vs 1-month post): 0.24
- Cognitive Flexibility Composite, D ([3]; baseline vs 1-wk post): 0.43
- Phonemic Fluency (D-KEFS Verbal Fluency), D ([3]; baseline vs 1-wk post): 0.52
- Problem Solving (D-KEFS TT, Total Achievement Score), D ([3]; baseline vs 1-wk post): 0.49
- Semantic Fluency (D-KEFS Verbal Fluency), D ([3]; baseline vs 1-wk post): 0.02
- Language (semantic fluency) performance change ([3]; post treatment time points): No significant performance changes
- CAPS-5 score, mean ([4]; 1-mo. post, SD 8.1, baseline 31.7 ± 13.0, N 28, only participants with mild TBI): 4.8
- CAPS-5 score, mean ([4]; 1-mo. post, SD 8.7, baseline 35.7 ± 11.0, N 23, only participants meeting diagnostic criteria per MINI at baseline): 6.0
- CAPS-5 % Reduction vs Baseline, mean ([4]; 1-mo. post, SD 17%, only participants with mild TBI): 88% ±
- CAPS-5 % Reduction vs Baseline, mean ([4]; 1-mo. post, SD 19%, only participants meeting diagnostic criteria per MINI): 86% ±
- CAPS-5 score, mean ([4]; 1-wk post, SD 5.2, baseline 35.7 ± 11.0, N 23, only participants meeting diagnostic criteria per MINI at baseline): 4.4
- CAPS-5 score, mean ([4]; 1-wk. post, SD 4.5, baseline 31.7 ± 13.0, N 28, only participants with mild TBI): 3.6
- CAPS-5 % Reduction vs Baseline, mean ([4]; 1-wk. post, SD 14%, only participants with mild TBI): 89% ±
- CAPS-5 % Reduction vs Baseline, mean ([4]; 1-wk. post, SD 17%, only participants meeting diagnostic criteria per MINI): 87% ±
- HAM-A score, mean ([5]; 1-mo. post, SD 4.6, baseline 20.7 ± 8.6, N 28, only participants with mild TBI): 3.7
- HAM-A score, mean ([5]; 1-mo. post, SD 6.3, baseline 23.8 ± 7.6, N 14, only participants meeting diagnostic criteria per MINI at baseline): 5.1
- HAM-A % Reduction vs Baseline, mean ([5]; 1-mo. post, SD 21%, only participants with mild TBI): 82% ±
- HAM-A % Reduction vs Baseline, mean ([5]; 1-mo. post, SD 23%, only participants meeting diagnostic criteria per MINI): 80% ±
- HAM-A score, mean ([5]; 1-wk post, SD 3.4, baseline 23.8 ± 7.6, N 14, only participants meeting diagnostic criteria per MINI at baseline): 4.2
- HAM-A score, mean ([5]; 1-wk. post, SD 3.3, baseline 20.7 ± 8.6, N 28, only participants with mild TBI): 3.3
- HAM-A % Reduction vs Baseline, mean ([5]; 1-wk. post, SD 14%, only participants meeting diagnostic criteria per MINI): 82% ±
- HAM-A % Reduction vs Baseline, mean ([5]; 1-wk. post, SD 19%, only participants with mild TBI): 82% ±
- Lag structure change (BOLD fMRI) [6]: relative slowing
- Cortical neuron dendritic arbor complexity [7]: increases cortical neuron dendritic arbor complexity
- Incidence of cardiac arrest in people treated [8]: Approximately 1 in 300 people
- Neurotoxicity reported in humans [8]: only transient ataxia has been reported in humans
- QT interval prolongation [8]: instances of subsequent fatal arrhythmia
